Data on three compounds can be found in ChEMBL document CHEMBL1201862, “PubChem BioAssay data set” (2004).

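Where inhibition never reached the appropriate level, the endpoint shown equals the highest concentration tested. Otherwise, values were interpolated linearly from a five-concentration, 48-hour dose response in 96-well plates. GI50 is the concentration that inhibits growth by half.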 Calls of active or inactive are those of the source. No stated cut-off is given here; in the data, active = GI50 up to about 1.1 µM and inactive = higher.

Test systems include Hs-578T; LXFL 529; K562; SK-MEL-28; SK-MEL-2; MCF7; DU-145; ACHN; OVCAR-8; A498; DMS-273; NCI-H522; NCI-H226; A549; U-251; Malme-3M; SNB-78; T47D; LOX IMVI; MOLT-4.
Common to all, as to experiment: DTP human tumour cell line panel, 48 h

Broadly, the GI50 is the concentration that inhibits growth by half. As to `CCOC(=O)C(CC(C)C)NC(=O)C(Cc1ccc(N(CCCl)CCCl)cc1)NC(C)=O` (centres undefined), the GI50 was 5.12 µM (inactive) in the assay with Hs-578T; 12.4 µM (inactive) in the assay with LXFL 529; 4.81 µM (inactive) in the assay on K562; 5.64 µM (inactive) in the assay with SK-MEL-28; 2.45 µM (inactive) with SK-MEL-2; 3.69 µM (inactive) in the assay with MCF7. Further, the GI50 in the assay with DU-145 is 5.93 µM (inactive); in the assay with ACHN, 2.08 µM (inactive); with OVCAR-8, 8.63 µM (inactive); with A498, 15.7 µM (inactive); in the assay with DMS-273 it was 4.47 µM (inactive); in the assay on NCI-H522 it was 1.57 µM (inactive). Also, the GI50 is 14.4 µM (inactive) in the assay on NCI-H226; 13.4 µM (inactive) in the assay with A549; 7.91 µM (inactive) in the assay on U-251; 2.44 µM (inactive) in the assay on Malme-3M; 3.93 µM (inactive) in the assay on SNB-78; 2.17 µM (inactive) in the assay on T47D. The GI50 in the assay on LOX IMVI is 2.68 µM (inactive).
`Cc1ccc(S(=O)(=O)C2=c3ncccc3=C3C(=O)c4ccccc4C(=O)C32)cc1` (centres undefined): the GI50 in the assay with Hs-578T was 22.6 µM (inactive); in the assay on LXFL 529 it was 83.8 µM (inactive); in the assay with K562, > 95.9 µM (inactive); in the assay on SK-MEL-28, > 100 µM (inactive); with SK-MEL-2 it was 3.13 µM (inactive); with MCF7, > 71.9 µM (inactive). Moreover, the GI50 with DU-145 is > 100 µM (inactive); in the assay on ACHN, 51.3 µM (inactive); in the assay on OVCAR-8, 39.4 µM (inactive); with A498, 5.81 µM (inactive); in the assay with DMS-273 it was 26.5 µM (inactive); in the assay with NCI-H522, 4.38 µM (inactive). Moreover, the GI50 is > 29.9 µM (inactive) with NCI-H226; > 100 µM (inactive) in the assay with A549; 57.7 µM (inactive) with U-251; > 100 µM (inactive) with MOLT-4; 53.7 µM (inactive) in the assay on Malme-3M; > 100 µM (inactive) in the assay with SNB-78. In addition, the GI50 is 68.4 µM (inactive) in the assay on T47D and > 100 µM (inactive) in the assay on LOX IMVI.
In the case of `Cc1ccc2[nH]c3c(C)c4cc[n+](C)cc4c(C)c3c2c1`, the GI50 in the assay with Hs-578T is 0.232 µM (active); in the assay on LXFL 529, 0.743 µM (active); with K562, 1.41 µM (inactive); with SK-MEL-28, 2.12 µM (inactive); in the assay with SK-MEL-2 it was 1.7 µM (inactive); in the assay with MCF7, 1.95 µM (inactive). The GI50 with DU-145 was 0.628 µM (active); in the assay with ACHN it was 4.92 µM (inactive); with OVCAR-8, 0.612 µM (active); in the assay with A498, 0.891 µM (active); with DMS-273, 2.33 µM (inactive); with NCI-H522, 1.03 µM (active). Further, the GI50 with NCI-H226 was 0.74 µM (active); with A549 it was 0.325 µM (active); in the assay on U-251, 0.41 µM (active); with MOLT-4, 5.87 µM (inactive); in the assay on Malme-3M it was 1.38 µM (inactive); with SNB-78, 0.787 µM (active). Besides, the GI50 with T47D is 1.55 µM (inactive); with LOX IMVI, 5 µM (inactive).
